Test results from ChEMBL document CHEMBL1129854, “Novel small molecule neurotensin antagonists: 3-(1,5-diaryl-1,5-dioxopentan-3-yl)benzoic acids” (Bioorg Med Chem Lett, 1997).

What was measured:
[1] = Inhibition of the binding of [3H]NT to neurotensin (NT) receptor in mouse brain tissue; format: tissue-based
[2] = system: HT-29; test: In vitro ability to inhibit the calcium mobilization induced by neurotensin (NT) in HT-29 cells; format: functional, cell-based; conditions: Homo sapiens

Ki [1]	IC50 [2]	Compound
3.9 nM	160 nM	COc1cccc(OC)c1-c1cc(C(=O)NC2(C(=O)O)C3CC4CC(C3)CC2C4)nn1-c1ccnc2cc(Cl)ccc12 (stereo not drawn) [REMINERTANT]
> 10000 nM		O=C(O)c1cccc(C(CC(=O)c2ccccc2)CC(=O)c2ccccc2)c1
